Reference: US8841325B2, “Immunomodulatory compounds for the restoration of vitamin D sensitivity in vitamin D resistant tumor cells” (Celgene Corporation, priority 2009, dated 2014)
“Also recorded” adds a separate entry of the source.

Tests used:
MCF-12A cells = assay: Cell growth by Sulphorhodamine B (SRB) assay, MCF-12A; format: cell-based; conditions: for effect on cell growth: single agent, Thalidomide 0.01-100 μM, CC-4047 and lenalidomide 0.001-10 μM, FIG. 6B
Procedure: Cells were seeded in 24 wells plates at a density of 10^4 cells per well and allowed to adhere for 24 hours. […] Each treatment was carried out for up to 7 days, but renewed every 2 days. Cell growth was then determined by Sulphorhodamine B (SRB) assay, measuring absorbance at 550 nm.
After 6 days treatment, cells were seeded in 24 well plates at a density of 1×10^4 cells/well. After 24 h cells were treated with reagents or vehicle for up to six days. Cells were treated for up to 6 days with log doses of Thalidomide (0.1 μM up to 100 μM), pomalidomide and lenalidomide (0 μM up to 10 μM). At the end of each experiment, cells were fixed to the bottom of the well by addition of ice-cold 50% w/v trichloroacetic acid (TCA) to give a final concentration of 10% TCA. Plates were incubated at 4° C. for 30 minutes and then washed with distilled water. Plates were allowed to air-dry at room temperature before staining with 0.4% w/v SRB in 1% v/v acetic acid and incubated for 15 minutes on a shaker. The plates were then extensively washed with 1% acetic acid to remove unbound dye and were again allowed to air-dry at room temperature. Incorporated dye was solubilised with 200 μl […] Tris base. 100 μl aliquots were transferred to a 96 well plate and absorbance at 550 nm was determined

MDA-MB-231 cells [1] = assay: Apoptosis protein array and Western blot (p53, p21, p27, claspin, BCL-2); format: cell-based; conditions: for expression of the anti-apoptotic protein Bcl-2: 1 μM lenalidomide or 100 nM 1,25-D3 alone
Procedure: Cells were lysed in RIPA buffer containing 1% NP40, 0.5% sodium deoxycholate, 0.1% SDS and PBS and lysates containing 300 μg protein were probed with an R and D apoptosis protein array kit according to the manufacturers instructions (R&D catalogue number ARY009). Spots were visualised using the enhanced chemiluminescence Western blotting detection system (ECL, Amersham, N.J., USA). Densitometric analysis was performed using Adobe Photoshop CS2.
To determine the pathways and proteins involved in the increased apoptosis seen with the lenalidomide/1, 25-D3 combination treatment, whole proteins were extracted from cells taken from the different treatments and were used for probing with an apoptosis protein array, according to the manufacturer. FIG. 9 illustrates the effects. […] Cells were also treated with 0.1% DMSO as a control. Cells were lysed with RIPA buffer as described in the materials and methods, and 300 μg of protein from each of the samples was used for probing with the R& D apoptosis array according to the manufacturers instructions. Results are representative of 2 separate arrays performed. The protein array gives a semi quantitative analysis of changes in the key apoptosis and checkpoint pathway proteins. […] All these proteins are well known to be major pro-apoptotic or checkpoint regulatory proteins. […] All theses results were confirmed by Western blot (FIG. 10 (a)) and densitometry plots of the array and western blot bands/dots were carried out to quantitate the changed expression of these proteins (FIG. 10 (b)). Therefore, the increase in pro-apoptotic proteins coupled with a decrease in Bcl-2 may be responsible for the increased apoptosis seen with the combination treatment.
More particularly, FIG. 10 illustrates the effects of co-treatment lenalidomide/1, 25-D3 on p53 activation and p21, p27, claspin, and BCL-2 protein expression in MDA-MB-231 cells. […] Cells were also treated with 0.1% DMSO as a control. Whole proteins were extracted and probed for p53 (serine 15 and serine 392), p21, p27, claspin, and BCL-2, with b-actin as a house-keeping protein.

MDA-MB-231 cells [2] = assay: Western blot of key signalling proteins (AKT, ERK1/2, VDR); format: cell-based; conditions: 1 μM lenalidomide co-treatment with 100 nM 1,25-D3, 6 days
Procedure: More particularly, FIG. 11 illustrates the effects of co-treatment lenalidomide/1, 25-D3 on expression of key signalling proteins in MDA-MB-231 cells. […] Cells were also treated with 0.1% DMSO as a control. Whole proteins were extracted and probed for total AKT (T-AKT), phosphor-AKT (P-AKT), total ERK1/2 (T-ERK1/2), phospho-ERK1/2 (P-ERK1/2), phosphor-p38 and total p38, VDR and b-actin as a house-keeping protein. Representative blots for the three experiments are shown.

MCF-7/VD^R cells [3] = assay: Cell viability by neutral red assay, MCF-7/VD^R; format: cell-based; conditions: up to 6 days
Excerpt: (§1) Non-treated cells were used as a control.
as §1

MCF-7/VD^R cells [4] = assay: BCL-2 expression by immunoblotting, MCF-7/VD^R; format: cell-based; conditions: 1 μM lenalidomide and 100 nM 1,25-D3 alone or in combination, 6 days, FIG. 15
Procedure: Cells were also treated with 0.1% DMSO as a control. Whole cells extracts were prepared and analysed by immuoblotting BCL-2 antibody. β-actin was used as a loading control.
Cells were also treated with 0.1% DMSO a control. Whole proteins were extracted and probes for BCL-2. β-actin was used as a loading control.

breast cancer cell lines = conditions: literature (Colston et al.); cited from earlier work
[5] = 1 μM lenalidomide co-treatment with 100 nM 1,25-D3, up to 6 days

Compound	effect on cell growth (MCF-12A cells; up to 6 days)	effect on cell growth (MCF-12A cells; up to 6 days, listed as lenalidomide)	BCL-2 expression (MDA-MB-231 cells [1]; [5])	p21, p27 and claspin expression (MDA-MB-231 cells [1]; [5])	p53 activation (phosphorylation of serine 15 and serine 392) (MDA-MB-231 cells [1]; [5])	p53 activation (phosphorylation of serine 15 and serine 392) (MDA-MB-231 cells [1]; 1 μM lenalidomide only, up to 6 days)	expression of the anti-apoptotic protein Bcl-2 (MDA-MB-231 cells [1]; up to 6 days)	proapoptotic protein claspin (MDA-MB-231 cells [1]; combination of lenalidomide and 1,25D3 versus either agent alone)	proapoptotic proteins P21, P27 and P53S392 (MDA-MB-231 cells [1]; lenalidomide in combination with vitamin D)	proapoptotic proteins P21, P27 and P53S392 (MDA-MB-231 cells [1]; lenalidomide on its own)	AKT and ERK1/2 activation and VDR protein expression (MDA-MB-231 cells [2])	differences in viability (MCF-7/VD^R cells [3]; lenalidomide 0 μM up to 10 μM, FIG. 13, p>0.05)	differences in viability (MCF-7/VD^R cells [3]; lenalidomide 0.01-1 μM alone or in combination with 1,25-D3 0-1000 nM, FIG. 14, p>0.05)	effects on BCL-2 expression (MCF-7/VD^R cells [4])	inhibition of growth (MCF-12A cells; 100 nM 1,25-D3 alone, up to 6 days, FIG. 7B)	IC50 (MCF-12A cells; 1,25 D3 alone, read-out: dose giving IC50 inhibition)	IC50 values (breast cancer cell lines)
Nc1cccc2c1CN(C1CCC(=O)NC1=O)C2=O (stereo not drawn) [Lenalidomide, 1-oxo-2-(2,6-dioxopiperidin-3-yl)-4-aminoisoindoline]	do not Affect	no effect	inhibits BCL-2 expression; also recorded: abolished by the combination	induces activation	induces p53 activation	induces p53 activation	does not affect	upregulated by the combination, but not with either agent alone	upregulated	upregulated	No Effect	No significant differences	No significant differences	no effects	–	–	–
C=C1/C(=C\C=C2/CCC[C@]3(C)[C@@H]([C@H](C)CCCC(C)(C)O)CC[C@@H]23)C[C@@H](O)C[C@@H]1O [1,25-D3, 1α,25-dihydroxyvitamin D3]	–	–	–	–	–	–	does not affect	–	–	–	–	–	–	–	55%	100 nM	in the nM region
